Where two headings read alike, the source gives them in different places.
Assays:
[1] = target: T1, SARS-CoV-2 nsp3-mac1 (Severe acute respiratory syndrome coronavirus 2, UniProt P0DTD1); test: biochemical; format: biochemical; settings: SARS-CoV-2 nsp3 macrodomain TR-FRET single point
[2] = target: T1, SARS-CoV-2 nsp3-mac1; test: biochemical; parameters: SARS-CoV-2 nsp3 macrodomain TR-FRET single point, per cent inhibition, n=2
[3] = read-out: perc_inhibition_mean, batch_name=ASAP-0000363-001
[4] = read-out: perc_inhibition_mean, batch_name=ASAP-0000467-001
[5] = read-out: perc_inhibition_mean, batch_name=ASAP-0000473-001
[6] = read-out: perc_inhibition_mean, batch_name=ASAP-0000359-001
[7] = read-out: perc_inhibition_mean, batch_name=ASAP-0000251-001
[8] = read-out: perc_inhibition_mean, batch_name=ASAP-0000456-001
[9] = read-out: perc_inhibition_mean, batch_name=ASAP-0000427-001
[10] = read-out: perc_inhibition_mean, batch_name=ASAP-0000428-001
[11] = read-out: perc_inhibition_mean, batch_name=ASAP-0000318-001
[12] = read-out: perc_inhibition_mean, batch_name=ASAP-0000414-001
[13] = read-out: perc_inhibition_mean, batch_name=ASAP-0000479-001

O=C(Nc1cnc2[nH]ncc2c1)c1noc2c1CCCC2 [ASAP-0000010]
perc_inhibition_mean ([1]; concentration 50.0 uM): -1.398%
inhibition at 50 µM ([2]; read-out: perc_inhibition_mean, batch_name=ASAP-0000010-001): -1.4%

FC(F)(F)c1ccccc1[C@@H]1CN(c2ncnc3[nH]ccc23)CCO1 [ASAP-0000030]
perc_inhibition_mean ([1]; concentration 50.0 uM): -5.311%
inhibition at 50 µM ([2]; read-out: perc_inhibition_mean, batch_name=ASAP-0000030-001): -5.31%

CCn1cc(CNc2cc3c(O)ncnc3cn2)nn1 [ASAP-0000189]
perc_inhibition_mean ([1]; concentration 50.0 uM): 1.671%
inhibition at 50 µM ([2]; read-out: perc_inhibition_mean, batch_name=ASAP-0000189-001): 1.67%

O=C(Nc1cnc2[nH]ncc2c1)c1ccccc1CN1CCOCC1 [ASAP-0000012]
perc_inhibition_mean ([1]; concentration 50.0 uM): -3.239%
inhibition at 50 µM ([2]; read-out: perc_inhibition_mean, batch_name=ASAP-0000012-001): -3.24%

Oc1ccccc1CNc1ncnc2cccnc12 [ASAP-0000363]
perc_inhibition_mean ([1]; concentration 49.75 uM): -1.837%
perc_inhibition_mean ([1]; concentration 99.5 uM): -0.535%
inhibition at 49.75 µM [2, 3]: -1.84%
inhibition at 99.5 µM [2, 3]: -0.535%

CC(C)NC(=O)[C@@H]1CCCN(c2ncnc3[nH]ccc23)C1 [ASAP-0000008]
perc_inhibition_mean ([1]; concentration 50.0 uM): 1.78%
inhibition at 50 µM ([2]; read-out: perc_inhibition_mean, batch_name=ASAP-0000008-001): 1.78%

COc1ccccc1C[C@@H](Nc1ncnc2[nH]ccc12)C(C)C [ASAP-0000467]
perc_inhibition_mean ([1]; concentration 49.75 uM): 31.716%
perc_inhibition_mean ([1]; concentration 99.5 uM): 48.499%
inhibition at 49.75 µM [2, 4]: 31.7%
inhibition at 99.5 µM [2, 4]: 48.5%

C[C@@H](Nc1ncnc2[nH]ccc12)c1cnn(CC2CCC2)c1 [ASAP-0000473]
perc_inhibition_mean ([1]; concentration 49.75 uM): -0.451%
perc_inhibition_mean ([1]; concentration 99.5 uM): 4.9%
inhibition at 49.75 µM [2, 5]: -0.451%
inhibition at 99.5 µM [2, 5]: 4.9%

O=C(Cc1ccns1)Nc1ncnc2[nH]cnc12 [ASAP-0000359]
perc_inhibition_mean ([1]; concentration 49.75 uM): -9.501%
perc_inhibition_mean ([1]; concentration 99.5 uM): -3.24%
inhibition at 49.75 µM [2, 6]: -9.5%
inhibition at 99.5 µM [2, 6]: -3.24%

Clc1cnc(N2CCN(c3ncnc4[nH]ccc34)CC2)c(Cl)c1 [ASAP-0000251]
perc_inhibition_mean ([1]; concentration 50.0 uM): -1.996%
perc_inhibition_mean ([1]; concentration 100.0 uM): -6.565%
inhibition at 50 µM [2, 7]: -2%
inhibition at 100 µM [2, 7]: -6.57%

O=C(O)c1cnc(C(=O)N2CCC(c3ccn4ncc(C(=O)N5CCCCC5)c4c3)CC2)cn1 [ASAP-0000456]
perc_inhibition_mean ([1]; concentration 49.75 uM): 27.543%
perc_inhibition_mean ([1]; concentration 99.5 uM): 46.435%
inhibition at 49.75 µM [2, 8]: 27.5%
inhibition at 99.5 µM [2, 8]: 46.4%

CN(c1ncnc2[nH]ncc12)[C@@H](CCO)c1ccccc1 [ASAP-0000427]
perc_inhibition_mean ([1]; concentration 49.75 uM): 8.856%
perc_inhibition_mean ([1]; concentration 99.5 uM): 5.14%
inhibition at 49.75 µM [2, 9]: 8.86%
inhibition at 99.5 µM [2, 9]: 5.14%

Cc1noc([C@@H]2CCCN(c3ncnc4[nH]ccc34)C2)n1 [ASAP-0000043]
perc_inhibition_mean ([1]; concentration 50.0 uM): 1.916%
inhibition at 50 µM ([2]; read-out: perc_inhibition_mean, batch_name=ASAP-0000043-001): 1.92%

CC(C)[C@H]1CNC(=O)CN1c1ncnc2[nH]ccc12 [ASAP-0000428]
perc_inhibition_mean ([1]; concentration 49.75 uM): 6.836%
perc_inhibition_mean ([1]; concentration 99.5 uM): 17.564%
inhibition at 49.75 µM [2, 10]: 6.84%
inhibition at 99.5 µM [2, 10]: 17.6%

O=C(CCN(Cc1cccc(Cl)c1)C(=O)c1c[nH]c(=O)cn1)N1CCNCC1 [ASAP-0000318]
perc_inhibition_mean ([1]; concentration 49.75 uM, n=2): -2.705%
perc_inhibition_mean ([1]; concentration 99.5 uM, n=2): 0.98%
inhibition at 49.75 µM [2, 11]: -2.71%
inhibition at 99.5 µM [2, 11]: 0.98%

Cc1[nH]ncc1CN(C)C(=O)c1cnn2ccc(C3CCN(C(=O)c4ccccc4)CC3)cc12 [ASAP-0000414]
perc_inhibition_mean ([1]; concentration 49.75 uM): -1.138%
perc_inhibition_mean ([1]; concentration 99.5 uM): 0.307%
inhibition at 49.75 µM [2, 12]: -1.14%
inhibition at 99.5 µM [2, 12]: 0.307%

c1ccc(Cn2ncc3c2CCC[C@@H]3Nc2ncnc3[nH]ccc23)cc1 [ASAP-0000074]
perc_inhibition_mean ([1]; concentration 50.0 uM): 5.848%
inhibition at 50 µM ([2]; read-out: perc_inhibition_mean, batch_name=ASAP-0000074-001): 5.85%

OC[C@@H]1CN(c2ncnc3nc[nH]c23)CCC1(F)F [ASAP-0000045]
perc_inhibition_mean ([1]; concentration 50.0 uM): 1.75%
inhibition at 50 µM ([2]; read-out: perc_inhibition_mean, batch_name=ASAP-0000045-001): 1.75%

CC(C)[C@@H]1C(=O)NCCN1c1ncnc2[nH]ccc12 [ASAP-0000479]
perc_inhibition_mean ([1]; concentration 49.75 uM): 61.35%
perc_inhibition_mean ([1]; concentration 99.5 uM): 80.665%
inhibition at 49.75 µM [2, 13]: 61.4%
inhibition at 99.5 µM [2, 13]: 80.7%

Source: publication doi:10.1101/2024.08.19.608619, “Discovery of potent SARS-CoV-2 nsp3 macrodomain inhibitors uncovers lack of translation to cellular antiviral response” (bioRxiv, 2024)
